Measurements published in article PMC12249711, “Comprehensive Evaluation of 1H-Isoindole-1,3(2H)-Dione Derivatives: Pharmacokinetic Studies and Analgesic Potential in Various Pain Models” (International Journal of Molecular Sciences, 2025).

What was measured:
mice = test: Oxaliplatin-induced neuropathic pain, von Frey test (tactile allodynia); type: in vivo, Albino Swiss mice; details: 10 mg/kg i.p.
Procedure: Furthermore, to assess the response to mechanical stimuli (i.e., tactile/mechanical) allodynia), the von Frey test was carried out with application of the electronic von Frey unit (Panlab, Cornellà de Llobregat, Spain) equipped with a fiber, the distal end of which was applied to the right hind paw of the mouse. The device automatically recorded the pressure force (in grams) applied until the paw withdrawal response occurred. In the absence of pain, an increase in the pressure value was observed. The force at which the animal withdrew its paw was considered the pain threshold for the mechanical stimulus. Measurements were taken before streptozotocin administration (in normoglycemic mice) and again 21 days later, both before and after compound administration, in diabetic mice (glucose level > 300 mg/dL) that had developed mechanical allodynia. On the day of the experiment, each mouse was placed in an observation chamber with a wire mesh bottom and was allowed to habituate for 1 h. After the habituation period, in order to obtain baseline values, each mouse was tested 3 times alternately in each hind paw, allowing at least 30 s between each measurement. Then, the mice were pretreated intraperitoneally with compound or vehicle, and 30 min later the animals were tested again and three measurements were taken, the mean of which was calculated to obtain the mean values after drug administration for each mouse. The anti-allodynic effect was defined as an increase in the pressure force value required to elicit a pain response, compared to the control group.
To assess the response to mechanical stimuli (i.e., tactile/mechanical allodynia), the von Frey test was performed using an electronic von Frey device (Bioseb, Vitrolles, France), as described in Section 4.4.5. In this assay, measurements were taken before and 3 h after oxaliplatin administration, as well as 7 days later. […] A total of 30 min after administration, the assessment was repeated using the same procedure.

rats = test: Carrageenan-induced mechanical hyperalgesia (pain pressure threshold, Randall-Selitto); type: in vivo, Wistar rats; details: for Pain Threshold: mean ± SEM, rats; for Increase in pain threshold: vs control
Procedure: The acute and local inflammation and paw edema was induced by intraplantar (i.pl.) injection of 0.1 mL of 1% carrageenan solution in PBS into the rat’s right hind paw, according to the modified method of Winter and Lence, as described previously; (n = 84). The paw volume was measured using the dislocation of the water column of the plethysmometer (Type a, 7140; Plethysmometer, Ugo Basile, Gemonio, Italy) before (V0) and at 1, 2, and 3 h (V1, V2, V3) after i.pl. carrageenan injection. […] Vehicle (1% Tween 80) was administered by the same route as the tested compounds.
Furthermore, we performed the pain pressure threshold test to assess heightened sensitivity to mechanical stimuli. The experiment was conducted based on the method described by Randall and Selitto [58], with certain modifications. An analgesymeter (AnalgesyMeter 37215, Ugo Basile, Gemonio, Italy) was used to gradually apply increasing pressure (measured in grams) to the plantar surface of the right hind paw of the rat until paw withdrawal occurred. At this point, the intensity of the applied force (in grams) was recorded as the withdrawal threshold. The maximum force intensity was set at 250 g. Carrageenan induces a decrease in the nociceptive threshold in response to a mechanical stimulus, a condition referred to as hyperalgesia. For each rat, paw withdrawal thresholds were recorded both before (0 h) and 1, 2, and 3 h after carrageenan administration (i.e., 3.5 h after intraperitoneal pretreatment with the tested compounds). […] The analgesic effect of the tested compounds was assessed in comparison with the control group (1% Tween 80); the injection was performed intraperitoneally within 30 min of carrageenan administration. An analgesic effect occurs when the compound administered produces a pain response with greater pressure than the control group.

[1] = parameters: method as in PMID 35396875; details: initial in vivo screening; cited from earlier work
[2] = early phase, 3 h after oxaliplatin
[3] = late phase, 7 days after oxaliplatin
[4] = 10 mg/kg i.p., 0 h (before carrageenan)
[5] = 10 mg/kg i.p., 2 h after carrageenan
[6] = 10 mg/kg i.p., 3 h after carrageenan
[7] = 20 mg/kg i.p., 0 h (before carrageenan)
[8] = 20 mg/kg i.p., 1 h after carrageenan
[9] = 20 mg/kg i.p., 2 h after carrageenan
[10] = 20 mg/kg i.p., 3 h after carrageenan
[11] = 10 mg/kg i.p., 1 h after carrageenan

SMILES | Analgesic activity (von Frey) (mice; [2]) [%] | Pain threshold after compound administration (von Frey) (mice; [2]) [g] | Analgesic activity (von Frey) (mice; [3]) [%] | Pain threshold after compound administration (von Frey) (mice; [3]) [g] | Pain Threshold (rats; [4]) [g] | Pain Threshold (rats; [5]) | Pain Threshold (rats; [6]) | Effect on pain threshold (in words) (rats; 10 mg/kg, over 1–3 h) | Pain Threshold (rats; [7]) [g] | Pain Threshold (rats; [8]) [g] | Pain Threshold (rats; [9]) [g] | Pain Threshold (rats; [10]) [g] | Increase in pain threshold (rats; 20 mg/kg, 1 h) [%] | Increase in pain threshold (rats; 20 mg/kg, 2 h) [%] | Increase in pain threshold (rats; 20 mg/kg, 3 h) [%] | Pain Threshold (rats; [11]) [g] | Increase in pain threshold (rats; 10 mg/kg, 1 h) [%] | Increase in pain threshold (rats; 10 mg/kg, 2 h) [%] | Increase in pain threshold (rats; 10 mg/kg, 3 h) [%] | Activity in central (supraspinal) pain model, hot plate test [1]
COc1ccccc1N1CCN(CC(O)CN2C(=O)c3ccccc3C2=O)CC1 (stereo not shown) [Compound F2] | 81 | 3.91 ± 0.29 | 45.45 | 4.0 ± 0.34 | 132.5 ± 2.1 | 127.5 ± 1.5 ns g | 130 ± 2.6 ns g | lack of analgesic activity | 132.5 ± 2.8 | 147.5 ± 2.5 | 141.7 ± 1.7 | 139.2 ± 0.8 | 10 | 14 | 11.3 | – | – | – | – | –
O=C1c2ccccc2C(=O)N1CC(O)CN1CCN(c2ccccc2)CC1 (stereo not shown) [Compound F1] | 60.7 | 3.39 ± 0.46 | 35 | 3.9 ± 0.34 | 128.3 ± 1.1 | 142.5 ± 2.1 g | 134.2 ± 2.1 g | – | 130.0 ± 2.9 | 143.3 ± 2.5 | 148.3 ± 2.8 | 146.7 ± 1.1 | 20.2 | 24.4 | 25 | 138.3 ± 2.1 | 16 | 19.5 | 14.2 | –
O=C1c2ccccc2C(=O)N1CC(O)CN1CCN(c2cccc(C(F)(F)F)c2)CC1 (stereo not shown) [Compound F3] | 82.9 | 3.53 ± 0.08 | 37.59 | 3.99 | 134.2 ± 2.4 | 142.5 ± 2.1 g | 137.5 ± 1.7 g | – | 135.8 ± 1.5 | 148.3 ± 3.3 | 150.8 ± 3.9 | 148.3 ± 3.1 | 11.9 | 19 | 18.6 | 141.7 ± 1.7 | 7 | 12.5 | 10 | –
O=C1c2ccccc2C(=O)N1CC(O)CN1CCN(C(c2ccccc2)c2ccccc2)CC1 (stereo not shown) [Compound F4] | 76.2 | 3.56 ± 0.32 | 24.39 | 3.57 ± 0.33 | 131.7 ± 1.7 | 141.7 ± 1.7 g | 139.2 ± 1.2 g | – | 134.2 ± 1.5 | 144.2 ± 0.8 | 145 ± 1.5 | 140.8 ± 0.8 | 14.4 | 16 | 14.2 | 139.2 ± 2.0 | 10.5 | 13.4 | 12.9 | inactive
